# Key:
# [1] = test system: L. infantum promastigotes; assay: Morphological evaluation by light microscopy (Diff-Quik), L. infantum; assay type: cell-based, Leishmania infantum; details: amphotericin B at 1 µg/mL
# Procedure: L. infantum, T. gallinae and G. duodenalis were studied at 0, and 48 h after treatment with germacrone (100 µg/mL), and controls (DMSO 1%, metronidazole at 10 µg/mL for T. gallinae and G. duodenalis and amphotericin B at 1 µg/mL for L. infantum).
# For L. infantum and T. gallinae, cultures in the exponential growth phase (10^7 promastigotes/mL and 5 × 10^5 trophozoites/mL, respectively) were treated in 96-well microplates. At each time point, quadruplicates were assigned per condition: growth control, germacrone, and the corresponding positive control (metronidazole or amphotericin B). For microscopy, quadruplicate wells corresponding to the same condition/time point were pooled prior to centrifugation to obtain sufficient biomass and a representative pellet for smear preparation. Pooled samples per condition/time point were centrifuged, resuspended in FBS and spread onto microscope slides. Once dried, samples were fixed and stained with Diff-Quik (Medion Diagnostic AG, Düdingen, Switzerland) following the manufacturer’s instructions. Additionally, three wells per condition (triplicates) were used for the MTT assay, with absorbance measured by spectrophotometry after 48 h.
# Morphological changes were analyzed using light microscopy. Experiments were performed as independent biological replicates on different plates, and one Diff-Quik stained smear was obtained per condition and time point per biological replicate. For morphometric analysis, a total of 30 trophozoites per condition and time point were measured across the independent biological replicates and were selected by consecutive sampling during a predefined serpentine (zig-zag) scan across the preparation. Up to two eligible trophozoites per field (intact, well-focused and non-overlapping) were measured in sequential fields until n = 30 was reached, avoiding subjective selection of “representative” cells. Overlapping, partially visible, out-of-focus, edge-of-field, or debris-obscured trophozoites were excluded a priori. Trophozoites were photographed using a researcher’s mobile phone mounted to the microscope ocular. Calibration was performed at the same magnification using a stage micrometre and applied in ImageJ v. 1.54d. One Diff-Quik stained smear was obtained per condition/time point per biological replicate Cell length, cell width, cell surface, nuclear length, nuclear width, axoneme (only Giardia), and length of axostyle (only T. gallinae) were measured with ImageJ software, and the data were recorded in an Excel database for statistical analysis.
# The Shapiro–Wilk test was used to assess the normality of the morphological variables. When data followed a normal distribution, Student’s t-test was applied; otherwise, non-parametric tests, such as the Mann–Whitney U test, was used. Values of p < 0.05 were considered significant. For the morphological analysis, the mean, standard deviation, median, and interquartile range were calculated using SPSS version 20 (IBM Corp., Armonk, NY, USA).
# Vero cells = test system: Vero cells; design: method as in PMID 36672727; details: cited from earlier work
# [2] = test system: L. infantum promastigotes; design: method as in doi:10.1080/10412905.2013.820669; details: cited from earlier work
# [3] = test system: intracellular amastigotes of L. infantum; assay: Infection index of DH82 macrophages infected with L. infantum (intracellular amastigotes); assay type: cell-based, Leishmania infantum; details: 1 µg/mL, 48 h
# T. gallinae trophozoites = assay: Anti-Trichomonas activity assay (MTT viability); assay type: cell-based; details: pure compounds
# Procedure: The anti-Trichomonas (AT) activity assay utilized T. gallinae trophozoites from an isolate obtained from a wood pigeon by Dr. […] EOs and pure compounds were solved in DMSO (Sigma, Madrid, Spain) (<1% final concentration). […] Trophozoites/promastigotes viability was assessed using the modified MTT colorimetric assay, as described previously in the literature, with results further validated by microscopic examination. The plate was analyzed in a spectrophotometer at a wavelength of 570 nm. The percentage of antiparasitic activity was calculated as growth inhibition, using the following formula: % AT = 100 - [(Ap - Ab) ÷ (Ac - Ab)] × 100, where Ap is the absorbance of the tested product, Ab the absorbance of the blank and Ac the absorbance of the control wells (culture without treatment). […] Metronidazole (Acros Organics, Madrid, Spain) served as a reference compound for anti-Giardia activity and Anti-Trichomonas activity and amphotericin B for anti-Leishmania activity. Data was analyzed using STATGRAPHICS Centurion XIX ([…].com) (Statgraphics Technologies, Inc., The Plains, VA, USA). The mammalian cells and trophozoites viability were tested with each compound in a dose-response experiment to calculate their relative potency (CC50 or IC50 value, respectively).
# [4] = Cytotoxicity of pure compounds on Vero cells (MTT); assay type: cell-based; details: African green monkey, Vero cells (kidney cells); 48 h exposure; 50% Vero cell mortality; MTT; read-out: Vero Cells CC50
# Procedure: African green monkey kidney cells (Vero cells) were maintained in Dulbecco’s modified Eagle’s minimal essential medium (DMEM) (Thermo Fisher Scientific, Waltham, MA, USA) supplemented with 10% FBS and 1% Pen-Strep at 37 °C under a humidified atmosphere of 5% CO2/95% air.
# Cells seeded in 96-well flat-bottom microplates with 100 μL medium per well (initial densities 10^4 cells per well) were exposed for 48 h to serial dilutions (100, 75, 50, 25, 10 and 1 µg/mL) of the tested compounds in DMSO (<1% final concentration). Cell viability was analyzed by the MTT colorimetric assay method, and the purple-colored formazan precipitate was dissolved with 100 μL of DMSO [23].
# (§1) Data was analyzed using STATGRAPHICS Centurion XIX (https://www.statgraphics.com) (Statgraphics Technologies, Inc., The Plains, VA, USA). The mammalian cells and trophozoites viability were tested with each compound in a dose–response experiment to calculate their relative potency (CC50 or IC50 value, respectively). IC50 (μg/mL) expresses the dose of EOs, extracts or pure compounds needed to produce 50% mortality of trophozoites, while CC50 (μg/mL) expresses the dose of compounds necessary to produce 50% mortality of Vero cells.
# [5] = test system: L. infantum promastigotes; assay: Anti-Leishmania activity assay on promastigotes (MTT viability); assay type: cell-based; details: pure compounds
# Procedure: Anti-Leishmania (AL) activity was assessed on L. infantum promastigotes (MCAN/ES/98/LLM-722), kindly provided by Dr. J.M. Requena from CBM-CSIC, as well as on L. infantum (M/CAN/ES/96/BCN150 zymodeme MON-1), strain isolated from a dog with active visceral leishmaniasis. L. infantum promastigotes (MCAN/ES/98/LLM-722) were cultured in RPMI medium supplemented with 15% FBS and 10 μg/mL of hemin (Acros Organics, Madrid, Spain), grown at 26 °C. Promastigotes in logarithmic growth were seeded in 96-well flat-bottom plates at a volume of 100 μL of culture per well and incubated for 48 h. Promastigotes for macrophage infection (M/CAN/ES/96/BCN150 zymodeme MON-1) were maintained at 26 °C in Schneider’s insect medium (Lonza, Basel, Switzerland) supplemented with 10% FBS and 100 U/mL penicillin and 100 μg/mL streptomycin (Lonza, Basel, Switzerland) (Pen-Strep). Promastigotes in the stationary phase of growth (5–6 days) were washed twice in phosphate-buffered saline at 2700× g for 10 min at 22 °C and employed for macrophage infection.
# EOs and pure compounds were solved in DMSO (Sigma, Madrid, Spain) (<1% final concentration). […] Trophozoites/promastigotes viability was assessed using the modified MTT colorimetric assay, as described previously in the literature, with results further validated by microscopic examination. The plate was analyzed in a spectrophotometer at a wavelength of 570 nm. The percentage of antiparasitic activity was calculated as growth inhibition, using the following formula: % AT = 100 − [(Ap − Ab) ÷ (Ac − Ab)] × 100, where Ap is the absorbance of the tested product, Ab the absorbance of the blank and Ac the absorbance of the control wells (culture without treatment).
# Pure compounds were tested using the same method, although at concentrations of 100, 75, 50, 25, 10, and 1 μg/mL. Metronidazole (Acros Organics, Madrid, Spain) served as a reference compound for anti-Giardia activity and Anti-Trichomonas activity and amphotericin B for anti-Leishmania activity.
# as §1
# [6] = test system: G. duodenalis trophozoites; assay: Anti-Giardia activity assay (MTT viability); assay type: cell-based; details: pure compounds
# Procedure: Anti-Giardia (AG) activity assays were conducted on G. duodenalis trophozoites from the ATCC® 30957 strain (assemblage A), using flat-bottom microwell plates in quadruplicate. […] Incubation was carried out for 24 h at 37 °C. EOs and pure compounds were solved in DMSO (Sigma, Madrid, Spain) (<1% final concentration). […] Trophozoites/promastigotes viability was assessed using the modified MTT colorimetric assay, as described previously in the literature, with results further validated by microscopic examination. The plate was analyzed in a spectrophotometer at a wavelength of 570 nm. The percentage of antiparasitic activity was calculated as growth inhibition, using the following formula: % AT = 100 - [(Ap - Ab) ÷ (Ac - Ab)] × 100, where Ap is the absorbance of the tested product, Ab the absorbance of the blank and Ac the absorbance of the control wells (culture without treatment). […] Metronidazole (Acros Organics, Madrid, Spain) served as a reference compound for anti-Giardia activity and Anti-Trichomonas activity and amphotericin B for anti-Leishmania activity. Data was analyzed using STATGRAPHICS Centurion XIX ([…].com) (Statgraphics Technologies, Inc., The Plains, VA, USA). The mammalian cells and trophozoites viability were tested with each compound in a dose-response experiment to calculate their relative potency (CC50 or IC50 value, respectively).
Compound,morphological alterations of promastigotes [1],Vero Cells CC50 (Vero cells),L. infantum (pm) IC50 [2],Infection Index ([3]; % infected x amastigotes per infected cell),% Infected Cells ([3]; mean ± SD) [%],nº Amastigotes/Infected Cell ([3]; mean ± SD),IC50 (T. gallinae trophozoites) [µg/mL],CC50 at 48 h [4] [µg/mL],IC50 [5] [µg/mL],IC50 [6] [µg/mL]
"C[C@@H]1[C@H](O)[C@@H](C)/C=C/C=C/C=C/C=C/C=C/C=C/C=C/[C@H](O[C@@H]2O[C@H](C)[C@@H](O)[C@H](N)[C@@H]2O)C[C@@H]2O[C@](O)(C[C@@H](O)C[C@@H](O)[C@H](O)CC[C@@H](O)C[C@@H](O)CC(=O)O[C@H]1C)C[C@H](O)[C@H]2C(=O)O [AmB, amphotericin B]",strong morphological alterations,7.11 [21] µg/mL,0.01 [22] µg/mL,8.9 ± 0.0,6.4 ± 3.7,1.4 ± 0.7,,,,
"C=C[C@]1(C)CC(=O)C(=C(C)C)C[C@H]1C(=C)C [Compound 1, β-elemenone]",,,,,,,> 100,> 100,> 100,> 100
CC(C)=C1CC(=O)[C@]2(C)CC[C@H]2[C@@H](C)CC1=O [Compound 3],,,,,,,> 100,> 100,35.5,> 100
C/C1=C\CC2(OC2(C)C)C(=O)C/C(C)=C/CC1 (stereo not drawn) [Compound 4],,,,,,,51.6,> 100,88.8,> 100

# Source: paper PMC12841663, “Antiprotozoal Potential of Cultivated Geranium macrorrhizum Against Giardia duodenalis, Trichomonas gallinae and Leishmania infantum” (International Journal of Molecular Sciences, 2026)
